From patent publication US20040120954A1, “Regulation of mt1-mmp activity” (priority 2000, published 2004)

Assays:
[1] = tested on: tyrosine residues in the cytoplasmic domain of NGFR; assay: Tyrosine phosphorylation of ectodomain/NGFR chimeras expressed in COS1 cells (homophilic complex formation); assay type: cell-based; details: FIG. 9
Description: Cell lysate samples were subjected to separation on SDS-PAGE, followed by a transfer of the proteins in the gel to nitrocellulose membranes (Hybond-ECL, Amersham Pharmacia Biotech, Inc.). After blocking with a solution of 10% skim milk dissolved in TBS (20 mM Tris-HCl buffer, pH 7.5 containing 150 mM NaCl), the membrane was exposed to a monoclonal anti-FLAG M2 antibody (3 μg/ml) for detecting FLAG-tagged MT1-MMP and its mutants. In order to visualize the immunoreactive bands, the membrane was further exposed to an alkaline phosphatase-conjugated goat anti-mouse IgG antibody. For the purpose of detecting a phosphotyrosine residue in chimera proteins, a monoclonal anti-phosphotyrosine antibody, PY20 (1 μg/ml) was used.
By utilizing the above principle, a chimeric protein is first constructed consisting of the ectodomain of MT1-MMP and the transmembrane (TM) and cytoplasmic (CP) domains of NGFR (FIG. 8) in order to test for direct complex formation. When the ectodomain of this chimeric protein forms a homophilic complex in a similar manner, tyrosine residues in the cytoplasmic domain will be phosphorylated.
A FLAG-tagged MT1-MMP (MT1-F) expression construct as used herein was as described in Itoh, Y. et al., J. Biol. Chem. 274: 34260-34266, 1999. In addition, MT1-F was used as a template to generate cDNAs for MT1Cat-F (Δ Ile^318-Gly^535) and MT1PEX-F (ΔTyr^112-Pro^312) by the PCR extension method of Ho et al. (Ho, S. N. et al., Gene, 77: 51-59, 1989). The cDNA was subcloned into pSG5 (Stratagene, CA, USA). Chimera mutants of the ectodomain of MT1-F, MT1Cat-F, MT1PEX-F or MT4PEX-F, with the transmembrane (TM)/cytoplasmic (CP) domain of NGFR were also generated by the PCR method in a similar manner, and subcloned into pSG5. The MT1-MMP-derived sequence corresponded to Met^1 through Asp^515 of MT1-MMP, while the NGFR-derived sequence corresponded to Glu^384 through Gly^790 of NGFR (GenBank™ accession number M23102). The other chimera mutants were also composed from these corresponding sequences. All the PCR-generated fragments were confirmed by DNA sequencing.
Expression vectors for the protein were transfected into COS1 cells, using FuGENE6™ (Roche Molecular Biochemicals) according to the manufacturer's instructions. COS1 cells were seeded in 6-well plates at 1.5×10^5/well at 16 hrs before the transfection was performed. The COS1 cells were maintained in a HAM F-12 medium or DMEM containing 10% fetal bovine serum in a humidified incubator at 37° C. At 48 hrs after the transfection, the cells were collected for use in the experiments.
To monitor the dimer formation of the enzyme in the cells, another approach to detect the molecular interactions was executed. […]

proMMP-2 = molecular target: T1, proMMP-2 (Homo sapiens, UniProt P08253); assay: ProMMP-2 binding assay on transfected COS1 cells; assay type: cell-based; details: COS1 cells expressing the mutant (FIG. 21)
T1 construct: made in house; host or cells: HighFive insect cells infected with recombinant baculovirus; purified from culture supernatant
T1 sequence (P08253 30-660 limits assumed): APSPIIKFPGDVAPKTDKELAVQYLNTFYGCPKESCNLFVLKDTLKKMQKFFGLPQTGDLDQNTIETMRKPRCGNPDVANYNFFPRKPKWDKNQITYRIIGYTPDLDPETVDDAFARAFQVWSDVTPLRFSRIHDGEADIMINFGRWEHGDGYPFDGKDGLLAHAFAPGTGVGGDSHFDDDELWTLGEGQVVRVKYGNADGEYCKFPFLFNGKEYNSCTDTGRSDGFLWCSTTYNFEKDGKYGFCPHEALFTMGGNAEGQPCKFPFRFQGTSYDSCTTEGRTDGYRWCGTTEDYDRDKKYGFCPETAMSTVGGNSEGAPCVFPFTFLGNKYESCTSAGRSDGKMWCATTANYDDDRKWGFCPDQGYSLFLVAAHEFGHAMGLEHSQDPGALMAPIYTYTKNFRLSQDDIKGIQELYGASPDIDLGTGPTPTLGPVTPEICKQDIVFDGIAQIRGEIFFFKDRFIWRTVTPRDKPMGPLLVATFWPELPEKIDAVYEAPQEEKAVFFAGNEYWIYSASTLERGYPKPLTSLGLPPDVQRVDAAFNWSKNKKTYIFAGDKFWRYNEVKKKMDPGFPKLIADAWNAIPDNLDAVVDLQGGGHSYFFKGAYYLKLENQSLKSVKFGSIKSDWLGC
Description: Transfected COS1 cells were cultured in a 24-well plate (0.2×10^4/well). Forty-eight hours after transfection, the cells were washed three times with serum-free DMEM, and incubated with purified proMMP-2 (2 μg/ml) in the serum-free DMEM at 25° C. for 1 hr. The cells were then washed three times with serum-free DMEM containing 5% dimethyl sulfoxide (DMSO) to remove free proMMP-2, and lysed in 50 μl of a non-reducing SDS-loading buffer. MMP-2 bound to the cells was analyzed by gelatin zymography.

MT1-MMP [2] = assay: In situ gelatin degrading assay (DQ gelatin or Alexa488-conjugated gelatin); assay type: cell-based, human; details: DQ gelatin; CHO-K1 (FIG. 13) or COS1 cells (FIG. 22)
Description: Two different in situ gelatin degrading assays were performed. One used DQ™ gelatin (Molecular Probes, Inc., OR, USA). DQ gelatin is a fluorescence-quenched gelatin substrate, and will fluoresce upon proteolytic cleavage. Glass cover slips were coated with 5% DQ™ gelatin in a 10 mg/ml unlabeled gelatin solution, and dried. Transfected cells were cultured on the cover slip in a humidified chamber for 16 hrs. The cells were then fixed with 3% para-formaldehyde and the degraded areas were visualized as those showing fluorescence.
The other assay used Alexa488-conjugated gelatin made with an Alexa488-labeling kit (Molecular Probes). The bottom surfaces of 4-well chamber slides (Nunc) were coated with Alexa488-conjugated gelatin according to the method of Yana, I. and Weiss, S. J., Mol. Biol. Cell, 11, 2387-2401, 2000. Transfected COS1 cells were cultured in the chamber slides for 16 hrs in a humidified culture incubator. The cells were then fixed with 3% para-formaldehyde in PBS, and the degraded area was analyzed under a fluorescence microscope. The degraded area was visualized as a dark, non-fluorescent area. Fluorescence images were analyzed using confocal microscopy (BioRad).
(§1) Next, to determine if MT1PEX-F affects the catalytic activity of MT1-MMP on the cell surface or not, tests for gelatin degrading activity and binding capacity to TIMP-2 were conducted using cells transfected in the same incubator. As shown in FIGS. 12 through 14, CHO-K1 cells were transfected with an expression vector for MT1-F, MT1-F/MT1PEX-F or MT1Cat-F, or a vector alone (Mock). The cells were then treated with trypsin, and separately seeded to: DQ™ gelatin-coated cover slips for testing the proteolytic activity (FIG. 13); and 24-well plates for TIMP-2 binding assay (FIG. 12) and for the activation of proMMP-2 (FIG. 14). Transfected cells on the DQ™ gelatin-coated cover slip as shown in FIG. 13 were incubated in a medium at 37° C. for 18 hrs, and the generated fluorescence was analyzed using confocal microscopy. Transfected cells on the 24-well plate as shown in FIG. 12 were incubated with 25 nM ^125I-labeled TIMP-2 in the presence or absence of BB-94 (50 μM) at 0° C. for 1 hr. MT1-MMP specific binding was calculated by subtracting the datum obtained in the presence of BB-94 (50 μM) from each datum derived from the corresponding experiments. Identically transfected cells on the 24-well plate as shown in FIG. 14 were subjected to the reaction with purified proMMP-2 in a serum-free medium at 37° C. for 18 hrs. The cells and culture supernatants were respectively subjected to Western blotting analysis using a monoclonal anti-FLAG M2 antibody, and gelatin zymography analysis. […] DQ™ gelatin is a fluorescence-quenched gelatin, which fluoresces upon proteolytic cleavage. […]

MT1-MMP [3] = assay: Activation of proMMP-2 by MT1-MMP on the cell surface of transfected cells (gelatin zymography); assay type: cell-based, human; details: transfected COS1 cells, exogenous purified proMMP-2 (FIGS. 2, 20)
Description: Gelatin zymography was conducted using an SDS-polyacrylamide gel (PAGE) containing gelatin (0.8 mg/ml) (Itoh, Y. et al., J. Biol. Chem., 273: 24360-24367, 1998). The samples were mixed with a SDS-PAGE loading buffer without a reducing agent and subjected to electrophoretic analysis at room temperature. Enzyme activity was visualized as a negative staining area with Coomassie Brilliant Blue R-250.
The expression construct for FLAG epitope ([…]-tagged MT1-MMP (MT1-F) described in Itoh, Y. et al., J. Biol. Chem., 274: 34260-34266, 1999 was used as a template to generate cDNA for MT1Cat-F (A Ile^318-Gly^535) by the PCR extension method of Ho et al., (Ho, S. N. et al., Gene, 77: 51-59, 1989). The cDNA was subcloned into pSG5 (Stratagene, CA, USA). The PCR-generated fragments were confirmed by DNA sequencing. COS1 cells were transfected with the expression vector for MT1-MMP mutant; MT1-F or MT1Cat-F, or a vector alone (Mock). Expression vectors for each protein were transfected using FuGENE6™ (Roche Molecular Biochemicals) according to the manufacturer's instructions. COS1 cells were seeded in 6-well plates at 1.5×10^5/well at 16 hrs before the transfection was performed. The COS1 cells were maintained in a HAM F-12 medium or DMEM containing 10% fetal bovine serum in a humidified incubator at 37° C. At 48 hrs after the transfection, the cells were collected for use in the experiments. The cells were incubated in the presence of purified proMMP-2 in a serum-free medium (0.25 μg/ml) at 37° C. for 18 hrs. Cell lysates were tested for the expression of the mutants, while culture supernatants were tested for the activation of proMMP-2.
To investigate roles of dimer formation upon the activation of proMMP-2, MT1-F was introduced into COS1 cells together with MT1PEX-F. The co-introduced cells were reacted with exogenously added proMMP-2. Thus, COS1 cells were co-transfected with the MT1-F and MT1PEX-F at indicated DNA amount ratios. Next, purified proMMP-2 (0.25 μg/ml) in a serum-free medium was reacted with the resulting cells at 37° C. for 18 hrs. MMP-2 in the culture supernatant was analyzed by gelatin zymography, and the cell lysates were subjected to Western blotting analysis using a monoclonal anti-FLAG M2 antibody.
as §1, with “experiments.” for “experiments. Identically transfected cells on the 24-well plate as shown in FIG. 14 were subjected to the reaction with purified proMMP-2 in a serum-free medium at 37° C. for 18 hrs. The cells and culture supernatants were respectively subjected to Western blotting analysis using a monoclonal anti-FLAG M2 antibody, and gelatin zymography analysis.”

Substance	tyrosine phosphorylation of the chimera (Anti-PY) [1]	ternary complex formation with TIMP-2/proMMP-2 on the cell surface (proMMP-2)	gelatin degrading (proteolytic) activity of cells expressing the mutant (MT1-MMP [2])	activation of proMMP-2 by cells expressing the mutant (MT1-MMP [3])
MT1-F/NGFR: Chimera of the ectodomain of MT1-F with the transmembrane/cytoplasmic domain of NGFR	phosphorylated			
MT1-MT4PEX: MT1-MMP in which Cys319 to Cys508 is replaced with Cys336 to Cys527 of mouse MT4-MMP		can form a ternary complex	showed proteolytic activity	did not activate proMMP-2
MT1Cat-F/NGFR: Chimera of the ectodomain of MT1Cat-F with the transmembrane/cytoplasmic domain of NGFR	extremely low			
MT1PEX-F/NGFR: Chimera of the ectodomain of MT1PEX-F with the transmembrane/cytoplasmic domain of NGFR	strongly phosphorylated			
MT4PEX-F/NGFR: Chimera of the ectodomain of MT4PEX-F with the transmembrane/cytoplasmic domain of NGFR	extremely low			
